Molecules are shown by their SMILES. pIC50: −log10 of the molar value.

This test deals with T1, CCR1 (Homo sapiens, UniProt P32246).
T1 construct: host or cells: THP-1 cells or isolated human CD14+ monocytes
T1 sequence (P32246 1-355): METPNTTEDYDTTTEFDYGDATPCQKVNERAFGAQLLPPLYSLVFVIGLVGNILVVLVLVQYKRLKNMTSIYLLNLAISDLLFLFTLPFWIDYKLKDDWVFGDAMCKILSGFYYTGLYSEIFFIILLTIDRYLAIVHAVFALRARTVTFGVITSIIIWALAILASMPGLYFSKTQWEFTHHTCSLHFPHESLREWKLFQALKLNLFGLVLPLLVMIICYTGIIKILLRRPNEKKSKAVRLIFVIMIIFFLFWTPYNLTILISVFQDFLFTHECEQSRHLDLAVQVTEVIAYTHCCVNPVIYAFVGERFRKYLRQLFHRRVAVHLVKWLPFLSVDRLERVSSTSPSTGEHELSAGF
As to the kind of experiment: Chemotaxis assay (CTX): inhibition of CCR1 mediated migration of THP-1 or monocyte cells. The class given is cell-based. The note with it: class symbols; activity for either the chemotaxis assay or binding assay. As to the method: THP-1 cells were obtained from ATCC (TIB-202) and cultured as a suspension in RPMI-1640 medium supplemented with 2 mM L-glutamine, 1.5 g/L sodium bicarbonate, 4.5 g/L glucose, 10 mM HEPES, 1 mM sodium pyruvate, 0.05% 2-mercaptoethanol and 10% FBS. Cells were grown under 5% CO2/95% air, 100% humidity at 37° C. and subcultured twice weekly at 1:5 (cells were cultured at a density range of 2×10^5 to 2×10^6 cells/mL) and harvested at 1×10^6 cells/mL. THP-1 cells express CCR1 and can be used in CCR1 binding and functional assays.
Monocytes were isolated from human buffy coats using the Miltenyi bead isolation system (Miltenyi, Auburn, Calif.). Briefly, following a Ficoll gradient separation to isolate peripheral blood mononuclear cells, cells were washed with PBS and the red blood cells lysed using standard procedures. Remaining cells were labeled with anti-CD14 antibodies coupled to magnetic beads (Miltenyi Biotech, Auburn, Calif.). Labeled cells were passed through AutoMACS (Miltenyi, Auburn, Calif.) and positive fraction collected. Monocytes express CCR1 and can be used in CCR1 binding and functional assays.
Chemotaxis assays were performed using 5 μm pore polycarbonate, polyvinylpyrrolidone-coated filters in 96-well chemotaxis chambers (Neuroprobe; Gaithersburg, Md.) using chemotaxis buffer (Hank's balanced salt solution (HBSS) and 1% FBS). CCR1 chemokine ligands (i.e., MIP-1α, CCL15/Leukotactin; R&D Systems; Minneapolis, Minn.) are use to evaluate compound mediated inhibition of CCR1 mediated migration. Other chemokines (i.e., SDF-1α; R&D Systems; Minneapolis, Minn.) are used as specificity controls. The lower chamber was loaded with 29 μl of chemokine (i.e., 0.1 nM CCL15/Leukotactin) and varying amounts of compound; the top chamber contained 100,000 THP-1 or monocyte cells in 20 μl. The chambers were incubated 1-2 hours at 37° C., and the number of cells in the lower chamber quantified either by direct cell counts in five high powered fields per well or by the CyQuant assay (Molecular Probes), a fluorescent dye method that measures nucleic acid content, and by measuring with a Spectrafluor Plus (Tecan). The computer program Prism from GraphPad, Inc. (San Diego, Calif.) was used to calculate IC50 values. IC50 values are those compound concentrations required to inhibit the number of cells responding to a CCR1 agonist by 50%.
As to `O=C(Cn1cnc2ncccc21)N1CCCc2c1cnn2-c1ccc(F)cc1`, the pIC50 (commonly the negative decadic logarithm of the IC50, by convention in mol/L) is 4.90 to 5.60.
`Cc1cc(C(F)(F)F)nn1C(CC(N)=O)C(=O)N1CCCc2c1cnn2-c1ccc(F)cc1` (stereo not drawn) gave a pIC50 of over 6.00.
Take `CCC(C(=O)N1CCCc2c1cnn2-c1ccc(F)cc1)n1nc(C(C)(C)O)cc1C` (stereo not drawn): the pIC50 was over 6.00.
For `Cc1cc(C(F)(F)F)nn1C(CC(=O)O)C(=O)N1CCCc2c1cnn2-c1ccc(F)cc1` (stereo not drawn) the value was 4.90 to 5.60.
For `COCC1CCc2c(cnn2-c2ccc(F)cc2)N1C(=O)Cn1nc(C(F)(F)F)c(Cl)c1C` (stereo not drawn) the value was over 6.00; for `CCC(C(=O)N1CCCc2c1cnn2-c1ccc(F)cc1)n1cc(C(F)(F)F)nc1C` (stereo not drawn), over 6.00; for `Cc1nc(C(F)(F)F)cn1C(C)C(=O)N1CCCc2c1cnn2-c1ccc(F)cc1` (stereo not drawn), over 6.00.
In turn, `Cc1cc(C(F)(F)F)nn1C(CO)C(=O)N1CCCc2c1cnn2-c1ccc(F)cc1` (stereo not drawn) had a pIC50 of over 6.00.
For `CCC(C(=O)N1c2cnn(-c3ccc(F)cc3)c2CCC1C)n1nc(C(F)(F)F)cc1C` (stereo not drawn) the value was over 6.00; for `O=C(Cc1nc(C(F)(F)F)c2ccccn12)N1CCCc2c1cnn2-c1ccc(F)cc1`, over 6.00; for `CC[C@@H](C(=O)N1CCCc2c1cnn2-c1ccc(F)cc1)n1nc(C(F)(F)F)c(Cl)c1C`, over 6.00.
Next, `CC[C@H](C(=O)N1CCCc2c1cnn2-c1ccc(F)cc1)n1nc(C(F)(F)F)c(Cl)c1C`: over 6.00; `O=C(Cc1nc2ccccc2[nH]1)N1CCCc2c1cnn2-c1ccc(F)cc1`: over 6.00.
Compound `COCC(C(=O)N1CCCc2c1cnn2-c1ccc(F)cc1)n1nc(C(F)(F)F)c(Cl)c1C` (stereo not drawn) showed a pIC50 of over 6.00.
Next, `COC(=O)C1CCc2c(cnn2-c2ccc(F)cc2)N1C(=O)Cn1nc(C(F)(F)F)c(Cl)c1C` (stereo not drawn): over 6.00; `CCC(C(=O)N1CCCc2c1cnn2-c1ccc(F)cc1)n1nc(-c2ncccn2)c(Cl)c1C` (stereo not drawn): over 6.00.
Next, `O=C(Cn1ncc2c1CCCC2)N1CCCc2c1cnn2-c1ccc(F)cc1`: over 6.00.
For `O=C(Cc1ccc(C(F)(F)F)cc1Cl)N1CCCc2c1cnn2-c1ccc(F)cc1` the value was over 6.00; for `Cc1c(Cl)c(C(F)(F)F)nn1CC(=O)N1CCCc2c1cnn2-c1ccc(F)cc1F`, over 6.00; for `O=C(Cn1nc(C(F)(F)F)c2c1OCCC2)N1CCCc2c1cnn2-c1ccc(F)cc1`, over 6.00.
For `Cc1cc(C(F)(F)F)nn1C(C)C(=O)N1CCCc2c1cnn2-c1ccc(F)cc1` (stereo not drawn), the pIC50 was over 6.00.
For `O=C(Cn1ncc2cccnc21)N1CCCc2c1cnn2-c1ccc(F)cc1` the value was over 6.00; for `O=C(Cn1nc(C(F)(F)F)c2cccnc21)N1CCCc2c1cnn2-c1ccc(F)cc1`, over 6.00.
For `O=C(Cc1nc2ccccc2o1)N1CCCc2c1cnn2-c1ccc(F)cc1` the value was over 6.00.
Next, `O=C(Cn1nc(C(F)(F)F)c2c1CCC2)N1CCCc2c1cnn2-c1ccc(F)cc1`: over 6.00.
For the compound `O=C(Cn1nc(C(F)(F)F)c2c1CCCC2)N1CCCc2c1cnn2-c1ccc(F)cc1`, the pIC50 was over 6.00.
For `O=C(Cn1cccn1)N1CCCc2c1cnn2-c1ccc(F)cc1` the value was under 4.90; for `Cc1c(Cl)c(-c2ncc[nH]2)nn1CC(=O)N1CCCc2c1cnn2-c1ccc(F)cc1`, over 6.00.
For `O=C(Cn1nc(-c2ncc[nH]2)c2cccnc21)N1CCCc2c1cnn2-c1ccc(F)cc1` the value was over 6.00.
Next, `Cc1c(Cl)c(C2=NCCN2)nn1CC(=O)N1CCCc2c1cnn2-c1ccc(F)cc1`: over 6.00; `Cc1c(Cl)cccc1CC(=O)N1CCCc2c1cnn2-c1ccc(F)cc1`: under 4.90.
Take `Cc1c(-c2ncon2)cnn1CC(=O)N1CCCc2c1cnn2-c1ccc(F)cc1`: the pIC50 was over 6.00.
Next, `Cc1c(Cl)c(C#N)nn1CC(=O)N1CCCc2c1cnn2-c1ccc(F)cc1`: over 6.00; `N#Cc1cnn(CC(=O)N2CCCc3c2cnn3-c2ccc(F)cc2)c1`: 4.90 to 5.60; `CCC(C(=O)N1CCCc2c1cnn2-c1ccc(F)cc1)n1nc(C(F)(F)F)c(Cl)c1C` (stereo not drawn): over 6.00.
For `Cc1c(Cl)c(C(F)(F)F)nn1C(C(=O)N1CCCc2c1cnn2-c1ccc(F)cc1)C(C)C` (stereo not drawn), the pIC50 is over 6.00.
For `Cc1ccnn1CC(=O)N1CCCc2c1cnn2-c1ccc(F)cc1` the value was over 6.00.
For `O=C(Cn1cc(Cl)cn1)N1CCCc2c1cnn2-c1ccc(F)cc1` the value was over 6.00; for `Cc1c(Cl)c(C(F)(F)F)nn1CC(=O)N1CCCc2c1cnn2-c1ccc(F)cn1`, over 6.00.
Next, `CC(C)(C(=O)N1CCCc2c1cnn2-c1ccc(F)cc1)c1ccc(Cl)c(C(F)(F)F)c1`: over 6.00; `O=C(Cc1ccc(Cl)c(OC(F)(F)F)c1)N1CCCc2c1cnn2-c1ccc(F)cc1`: over 6.00; `O=C(Cc1ccc(OC(F)(F)F)cc1)N1CCCc2c1cnn2-c1ccc(F)cc1`: over 6.00.
With `O=C(Cc1cccc(OC(F)(F)F)c1)N1CCCc2c1cnn2-c1ccc(F)cc1`, the pIC50 is 5.60 to 6.00.
In the case of `O=C(C(O)c1cccc(C(F)(F)F)c1)N1CCCc2c1cnn2-c1ccc(F)cc1` (stereo not drawn), the pIC50 was 5.60 to 6.00.
`Cc1nc(C(F)(F)F)nn1CC(=O)N1CCCc2c1cnn2-c1ccc(F)cc1` gave a pIC50 of over 6.00.
Turning to `O=C(Cn1cnc(C(F)(F)F)n1)N1CCCc2c1cnn2-c1ccc(F)cc1`, the pIC50 was over 6.00.
For `O=C(Cc1nccc(C(F)(F)F)n1)N1CCCc2c1cnn2-c1ccc(F)cc1` the value was 4.90 to 5.60; for `O=C(Cc1ccc(C(F)(F)F)c(Cl)c1)N1CCCc2c1cnn2-c1ccc(F)cc1`, over 6.00; for `Cc1nc(C(F)(F)F)cn1CC(=O)N1CCCc2c1cnn2-c1ccc(F)cc1`, over 6.00.
Next, `O=C(Cn1cnc(C(F)(F)F)c1)N1CCCc2c1cnn2-c1ccc(F)cc1`: over 6.00; `O=C(Cc1ccc(Cl)c(C(F)(F)F)c1)N1CCCc2c1cnn2-c1ccc(F)cc1`: over 6.00; `Cc1c(Cl)c(C(F)(F)F)cn1CC(=O)N1c2cnn(-c3ccc(F)cc3)c2CCC1C` (stereo not drawn): over 6.00.
For `O=C(Cc1ccc(C(F)(F)F)cc1)N1CCCc2c1cnn2-c1ccc(F)cc1` the value was over 6.00; for `Cc1nn(-c2ccc(F)cc2)c2c1N(C(=O)Cn1nc(C(F)(F)F)c(Cl)c1C)CCC2`, over 6.00; for `O=C(Cc1cccc(C(F)(F)F)c1)N1CCCc2c1cnn2-c1ccc(F)cc1`, over 6.00.
Turning to `Cc1c(Cl)c(C(F)(F)F)nn1C(C)C(=O)N1CCCc2c1cnn2-c1ccc(F)cc1` (stereo not drawn), the pIC50 was over 6.00.
`Cc1cc(C(F)(F)F)nn1CC(=O)N1CCCc2c1cnn2-c1ccc(F)cc1`: the pIC50 was over 6.00.
Next, `Cc1nn(CC(=O)N2CCCc3c2cnn3-c2ccc(F)cc2)c(-c2ncccn2)c1Cl`: over 6.00.
Take `Cc1c(Cl)c(-c2ncccn2)nn1CC(=O)N1CCCc2c1cnn2-c1ccc(F)cc1`: the negative-log IC50 (pIC50) is over 6.00.
Next, `Cc1c(Cl)c(C(C)(C)O)nn1CC(=O)N1CCCc2c1cnn2-c1ccc(F)cc1`: over 6.00; `Cc1c(Cl)c(C(F)(F)F)nn1CC(=O)N1CCCc2c1cnn2-c1ccc(Cl)cc1`: over 6.00.
For `COc1cc(-n2ncc3c2CCCN3C(=O)Cn2nc(C(F)(F)F)c(Cl)c2C)ccc1Cl` the value was over 6.00.
Next, `O=C(Cc1ccc(Cl)cc1)N1CCCc2c1cnn2-c1ccc(F)cc1`: over 6.00; `Cc1c(Cl)c(C(F)(F)F)nn1CC(=O)N1CCCc2c1cnn2-c1ccc(F)cc1`: over 6.00; `Nc1ncnc2c1c(-c1ncc[nH]1)nn2CC(=O)N1CCCc2c1cnn2-c1ccc(F)cc1`: over 6.00.
For the compound `Cc1nc(C(F)(F)F)nn1C(C)C(=O)N1CCCc2c1cnn2-c1ccc(F)cc1` (stereo not drawn), the pIC50 is over 6.00.
As to `Cc1nc(C(F)(F)F)nn1C(C)C(=O)N1CCCc2c1cnn2-c1ccc(Cl)cc1` (stereo not drawn), the pIC50 is over 6.00.
Regarding `Cc1nc(C(F)(F)F)cn1[C@@H](C)C(=O)N1CCCc2c1cnn2-c1ccc(Cl)cc1`, the pIC50 is over 6.00.
The compound `Cc1nc(C(F)(F)F)cn1[C@@H](C)C(=O)N1CCCc2c1cnn2-c1ccc(F)cc1` showed a pIC50 of over 6.00.

For the origin of these results see patent publication US9181241B2, “Antagonists of chemokine receptors” (ChemoCentryx, Inc., priority 2012, dated 2015).
